In patent publication US10513694B2, “Thienopyrrole compounds and uses thereof” (PROMEGA CORPORATION, priority 2015, dated 2019):
Entries after “also recorded” stand apart in the source; their conditions may differ.

Assays:
purified Nluc enzyme = biological target: T1, purified Nluc enzyme (Oplophorus gracilirostris, UniProt Q9GV45, A31E/A60N/A81I/F95D/I117V/K70R/L54V/L99Q/M102K/N193R/P142E/Q151K/Q38R/Q45L/V71I/Y165I); type: biochemical; conditions: titration up to 100 μM final; RT 2 hrs; pro-substrate PBI-4442 + DTT
T1 construct: purchased Promega Corporation
How it was run: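 Purified Nluc enzyme with 20 mM DTT and a pro-substrate reduced by DTT to the Nluc substrate. 11-point 1:2 compound titrations (top 100 μM final) incubated 2 h at RT; luminescence read and IC50 fitted.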

[1] = test system: firefly luciferase, e.g., ULTRAGLO® luciferase; assay: Specificity of inhibition: firefly luciferase activity; type: biochemical; conditions: 1 μM luciferin in Luciferase Detection Reagent; RT 2 hrs
How it was run: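 Counter-screen against firefly (ULTRAGLO®) luciferase: 1 μM luciferin in detection reagent mixed with equal volume of compound titrations. After 2 hrs at RT, luminescence read.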

Nluc luciferase = Nluc luciferase (Oplophorus gracilirostris, UniProt Q9GV45, A31E/A60N/A81I/F95D/I117V/K70R/L54V/L99Q/M102K/N193R/P142E/Q151K/Q38R/Q45L/V71I/Y165I); type: cell-based; parameters: expressed in transfected cells; host or cells: HEK293; conditions: HEK293; 10, 30 or 120 minutes
Experimental: HEK293 cells were transiently transfected with Nluc luciferase to express it cytosolically. Twenty-four hours post-transfection, cells were exposed to a compound response curve of the thienopyrrole compound JRW-0147 or JRW-0013 for 10 minutes, 30 minutes, or 120 minutes. 10 μM furimazine was then added, and luminescence was measured.

[2] = test system: Beta-2 Adrenergic Receptor-Nluc (B2AR-Nluc) fusion protein; assay: Cell permeability, B2AR-Nluc in HEK293 or HeLa cells -/+ digitonin; type: cell-based
Experimental: HEK293 or HeLa cells were transiently transfected with Beta-2 Adrenergic Receptor-Nluc (B2AR-Nluc) fusion protein to anchor and orient Nluc cytosolically. 24 hrs post-transfection, cells were treated with −/+50 μg/mL digitonin to emulate a live and lytic scenario, respectively. Then, intact cells and permeabilized cells were exposed to a compound response curve of thienopyrrole compound up to 2 hrs. 10 μM furimazine (Promega Corp.) was added, and luminescence was measured. If a thienopyrrole compound (inhibitor) was permeable, the dose-response curves for both live and permeabilized cells overlapped. However, if a thienopyrrole compound was impermeable, the EC50 was right-shifted in the live cells relative to the permeabilized cells.

Nluc = Nluc (Oplophorus gracilirostris, UniProt Q9GV45, A31E/A60N/A81I/F95D/I117V/K70R/L54V/L99Q/M102K/N193R/P142E/Q151K/Q38R/Q45L/V71I/Y165I); assay: Multiplex RealTime-Glo / Caspase-Glo 3/7 in DMEM media; type: biochemical; parameters: purchased Promega Corporation; conditions: for Avg (luminescence), 1 hour: RealTime-Glo reagent in DMEM + Caspase-Glo 3/7
Experimental: In a Corning 3570 assay plate, 1× REAL-TIME-GLO™ MT Cell Viability assay reagent was prepared in 40 μL DMEM media (n=3) and incubated overnight. Next, 40 μL of a titration of JRW-0147 or JRW-0344 (2× concentration in CASPASE-GLO® 3/7 Assay Reagent (Promega Corporation)) was added. The reactions were incubated at room temperature, and luminescence determined at 1 hour.

UltraGlo luciferase = assay: Specificity of inhibition of Nluc luciferase: UltraGlo luciferase; type: biochemical, firefly; conditions: RT 2 hrs
Experimental: The following example describes the specificity of disclosed thienopyrrole compounds, JRW-0251, JRW-0344, and JRW-0147, to inhibit Nluc luciferase activity versus firefly luciferase activity, e.g., ULTRAGLO® luciferase. In a Corning 3570 assay plate, a solution containing 1 μM luciferin in Luciferase Detection Reagent (Promega Corporation V865/859) was added to the assay wells. An equal volume of titrations the thienopyrrole compounds, JRW-0251, JRW-0344, and JRW-0147 were then added to the wells. The reactions were incubated at RT for 2 hrs, and luminescence was measured on Tecan M1000 Pro plate reader.

Nluc, sequence (Q9GV45 28-196 with tags or gaps with the stated changes limits assumed): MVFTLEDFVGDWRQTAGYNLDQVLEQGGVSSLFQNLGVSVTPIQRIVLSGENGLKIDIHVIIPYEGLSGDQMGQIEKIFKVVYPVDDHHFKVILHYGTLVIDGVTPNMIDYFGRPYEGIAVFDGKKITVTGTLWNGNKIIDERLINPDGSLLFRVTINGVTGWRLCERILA
T1 sequence (Q9GV45 28-196 with tags or gaps with the stated changes limits assumed): as above
Nluc luciferase, sequence (Q9GV45 28-196 with tags or gaps with the stated changes limits assumed): as above

## CCN(C(=O)Cn1c(C(=O)N[C@H]2CC[C@H](C(=O)OC)CC2)cc2sccc21)c1cccc(C)c1 [JRW-0013, trans-methyl-4-(4-(2-(ethyl(m-tolyl)amino)-2-oxoethyl)-4H-thieno[3,2-b]pyrrole-5-carboxamido)cyclohexane-1-carboxylate]
Purified Nluc enzyme
  Inhibition of purified Nluc enzyme (FIG. 2): capable of inhibiting purified Nluc enzyme
[1]
  Inhibition of firefly luciferase activity (FIG. 3): do not inhibit firefly luciferase activity; also recorded: did not inhibit the firefly luciferase activity
Nluc luciferase
  Change in RLUs from cytosolic Nluc (FIG. 16): decrease the RLUs from Nluc in a dose-dependent manner independent of time
[2]
  Cell permeability: cell-permeable

## CCN(C(=O)Cn1c(C(=O)N[C@H]2CC[C@H](C(=O)NCCCCCC(=O)O)CC2)cc2sccc21)c1cccc(C)c1 [JRW-0147, 6-(trans-4-(4-(2-(ethyl(m-tolyl)amino)-2-oxoethyl)-4H-thieno[3,2-b]pyrrole-5-carboxamido)cyclohexane-1-carboxamido)hexanoic acid]
Nluc; [cmpd] final 0.09765625 μM
  S/B, 1 hour: 0.84
  Avg (luminescence), 1 hour: 117067
Nluc; [cmpd] final 0.1953125 μM
  S/B, 1 hour: 0.89
  Avg (luminescence), 1 hour: 124500
Nluc; [cmpd] final 0.390625 μM
  S/B, 1 hour: 0.85
  Avg (luminescence), 1 hour: 117833
Nluc; [cmpd] final 0.78125 μM
  S/B, 1 hour: 0.77
  Avg (luminescence), 1 hour: 106867
Nluc; [cmpd] final 1.5625 μM
  S/B, 1 hour: 0.47
  Avg (luminescence), 1 hour: 65173
Nluc; [cmpd] final 3.125 μM
  S/B, 1 hour: 0.32
  Avg (luminescence), 1 hour: 45167
Nluc; [cmpd] final 6.25 μM
  S/B, 1 hour: 0.20
  Avg (luminescence), 1 hour: 27817
Nluc; [cmpd] final 12.5 μM
  S/B, 1 hour: 0.12
  Avg (luminescence), 1 hour: 17293
Nluc; [cmpd] final 25 μM
  S/B, 1 hour: 0.08
  Avg (luminescence), 1 hour: 10699
Nluc; [cmpd] final 50 μM
  S/B, 1 hour: 0.06
  Avg (luminescence), 1 hour: 8136
Nluc; [cmpd] final 100 μM
  S/B, 1 hour: 0.05
  Avg (luminescence), 1 hour: 6568
Purified Nluc enzyme
  Inhibition of purified Nluc enzyme (FIG. 2): capable of inhibiting purified Nluc enzyme
[1]
  Inhibition of firefly luciferase activity (FIG. 3): do not inhibit firefly luciferase activity; also recorded: did not inhibit the firefly luciferase activity
Nluc luciferase
  Change in RLUs from cytosolic Nluc (FIG. 16): no significant change in RLUs from Nluc
[2]
  Cell permeability: cell-impermeable
UltraGlo luciferase
  Inhibition of firefly luciferase activity (Table 3): did not inhibit the firefly luciferase activity
UltraGlo luciferase; [cmpd] 0.1953125 μM
  UltraGlo luciferase, Avg (luminescence): 85561
  UltraGlo luciferase, S/B: 0.99
UltraGlo luciferase; [cmpd] 0.390625 μM
  UltraGlo luciferase, Avg (luminescence): 84087
  UltraGlo luciferase, S/B: 0.97
UltraGlo luciferase; [cmpd] 0.78125 μM
  UltraGlo luciferase, Avg (luminescence): 84072
  UltraGlo luciferase, S/B: 0.97
UltraGlo luciferase; [cmpd] 1.5625 μM
  UltraGlo luciferase, Avg (luminescence): 83668
  UltraGlo luciferase, S/B: 0.97
UltraGlo luciferase; [cmpd] 3.125 μM
  UltraGlo luciferase, Avg (luminescence): 82252
  UltraGlo luciferase, S/B: 0.95
UltraGlo luciferase; [cmpd] 6.25 μM
  UltraGlo luciferase, Avg (luminescence): 83282
  UltraGlo luciferase, S/B: 0.97
UltraGlo luciferase; [cmpd] 12.5 μM
  UltraGlo luciferase, Avg (luminescence): 83291
  UltraGlo luciferase, S/B: 0.97
UltraGlo luciferase; [cmpd] 25 μM
  UltraGlo luciferase, Avg (luminescence): 84033
  UltraGlo luciferase, S/B: 0.97
UltraGlo luciferase; [cmpd] 50 μM
  UltraGlo luciferase, Avg (luminescence): 81106
  UltraGlo luciferase, S/B: 0.94
UltraGlo luciferase; [cmpd] 100 μM
  UltraGlo luciferase, Avg (luminescence): 80636
  UltraGlo luciferase, S/B: 0.93
UltraGlo luciferase; [cmpd] 200 μM
  UltraGlo luciferase, Avg (luminescence): 78035
  UltraGlo luciferase, S/B: 0.90

## CCN(C(=O)Cn1c(C(=O)N[C@H]2CC[C@H](C(=O)NCCCCCCS(=O)(=O)[O-])CC2)cc2sccc21)c1cccc(C)c1.[Na+] [JRW-0344, Sodium 6-(trans-4-(4-(2-(ethyl(m-tolyl)amino)-2-oxoethyl)-4H-thieno[3,2-b]pyrrole-5-carboxamido)cyclohexane-1-carboxamido)hexane-1-sulfonate]
Nluc; [cmpd] final 0.09765625 μM
  S/B, 1 hour: 0.71
  Avg (luminescence), 1 hour: 112533
Nluc; [cmpd] final 0.1953125 μM
  S/B, 1 hour: 0.80
  Avg (luminescence), 1 hour: 126333
Nluc; [cmpd] final 0.390625 μM
  S/B, 1 hour: 0.88
  Avg (luminescence), 1 hour: 138900
Nluc; [cmpd] final 0.78125 μM
  S/B, 1 hour: 0.61
  Avg (luminescence), 1 hour: 95993
Nluc; [cmpd] final 1.5625 μM
  S/B, 1 hour: 0.41
  Avg (luminescence), 1 hour: 65097
Nluc; [cmpd] final 3.125 μM
  S/B, 1 hour: 0.21
  Avg (luminescence), 1 hour: 33523
Nluc; [cmpd] final 6.25 μM
  S/B, 1 hour: 0.12
  Avg (luminescence), 1 hour: 19560
Nluc; [cmpd] final 12.5 μM
  S/B, 1 hour: 0.10
  Avg (luminescence), 1 hour: 15547
Nluc; [cmpd] final 25 μM
  S/B, 1 hour: 0.06
  Avg (luminescence), 1 hour: 9761
Nluc; [cmpd] final 50 μM
  S/B, 1 hour: 0.04
  Avg (luminescence), 1 hour: 6790
Nluc; [cmpd] final 100 μM
  S/B, 1 hour: 0.03
  Avg (luminescence), 1 hour: 5523
UltraGlo luciferase
  Inhibition of firefly luciferase activity (Table 3): did not inhibit the firefly luciferase activity
UltraGlo luciferase; [cmpd] 0.1953125 μM
  UltraGlo luciferase, Avg (luminescence): 83526.33
  UltraGlo luciferase, S/B: 1.00
UltraGlo luciferase; [cmpd] 0.390625 μM
  UltraGlo luciferase, Avg (luminescence): 82945.67
  UltraGlo luciferase, S/B: 1.00
UltraGlo luciferase; [cmpd] 0.78125 μM
  UltraGlo luciferase, Avg (luminescence): 82135.67
  UltraGlo luciferase, S/B: 0.99
UltraGlo luciferase; [cmpd] 1.5625 μM
  UltraGlo luciferase, Avg (luminescence): 81368.33
  UltraGlo luciferase, S/B: 0.98
UltraGlo luciferase; [cmpd] 3.125 μM
  UltraGlo luciferase, Avg (luminescence): 80134.33
  UltraGlo luciferase, S/B: 0.96
UltraGlo luciferase; [cmpd] 6.25 μM
  UltraGlo luciferase, Avg (luminescence): 83064.33
  UltraGlo luciferase, S/B: 1.00
UltraGlo luciferase; [cmpd] 12.5 μM
  UltraGlo luciferase, Avg (luminescence): 82454.67
  UltraGlo luciferase, S/B: 0.99
UltraGlo luciferase; [cmpd] 25 μM
  UltraGlo luciferase, Avg (luminescence): 83084.00
  UltraGlo luciferase, S/B: 1.00
UltraGlo luciferase; [cmpd] 50 μM
  UltraGlo luciferase, Avg (luminescence): 81805.00
  UltraGlo luciferase, S/B: 0.98
UltraGlo luciferase; [cmpd] 100 μM
  UltraGlo luciferase, Avg (luminescence): 79847.67
  UltraGlo luciferase, S/B: 0.96
UltraGlo luciferase; [cmpd] 200 μM
  UltraGlo luciferase, Avg (luminescence): 77230.33
  UltraGlo luciferase, S/B: 0.93
